This note sets out measurements from paper PMC11943723, “Synthesis and Biological Activity of Glycosyl Thiazolyl Disulfides Based on Thiacarpine, an Analogue of the Cytotoxic Alkaloid Polycarpine from the Ascidian Polycarpa aurata” (Marine Drugs, 2025).

A short description of data set [1]: MTT cell viability assay, BEAS-2B normal cells. Format: cell-based. Conditions: human, BEAS-2B normal bronchial epithelial cells, 24 h incubation, read-out: Cytotoxicity EC50, BEAS 2B. From the text:
(§1) Human erythrocytes were purchased from the blood transfusion station Vladivostok. Human breast cancer cell lines MCF-7^HTB−22, and MDA-MB-231^CRM-HTB−26, liver hepatocellular carcinoma Hep G2^HB−8065, prostate adenocarcinoma PC-3^CRL−1435, cervical adenocarcinoma HeLa^CRM-CCL−2, and normal bronchial epithelial cells BEAS-2B ^CRL−3588 were received from ATCC (Manassas, VA, USA).
(§2) DMEM medium (Biolot, Russia) with 1% penicillin/streptomycin and 10% fetal bovine serum (FBS) (Biolot, Russia) was used for cultivation of Hep G2, PC-3, HeLa, and Beas-2b. MEM medium (Biolot, Russia) with 1% penicillin/streptomycin sulfate (Biolot, Russia) and FBS (Biolot, Russia) to a final concentration of 10% for MCF-7 and MDA-MB-231 cells.
(§3) The effect of the studied compounds on the viability of human cancer and normal cells was determined using the MTT (3-[4,5-dimethylthiazol-2-yl]-2,5 diphenyl tetrazolium bromide) assay. Briefly, 6 × 10^3 cells per well were seeded into 96-well plates and incubated for 24 h for adhesion, followed by incubation for 24 h with different concentrations of the substances. After incubation, the medium containing the test substances was replaced with 100 µL of fresh medium. Then, 10 μL of MTT (Sigma-Aldrich, Madison, WI, USA) reagent (5 mg/mL MTT in PBS) was added into the cells and the plates for additional 4 h. Thereafter, 100 µL of SDS-HCl solution (1 g SDS/10 mL dH2O/17 µL 6N HCl) was added to each well and incubated for 18 h. The absorbance of the converted formazan dye was measured using a Multiskan FC microplate photometer (Thermo Scientific, Waltham, MA, USA) at a wavelength of 570 nm. All experiments were performed in triplicate. Cytotoxic activity was expressed as a percentage of the cell viability.
A general note: Tetrazolium dyes change colour on reduction, which living cells bring about.

Data set [2] relates to HeLa (cervical cancer). As to the kind of experiment: MTT cell viability assay, HeLa. Type of data set: cell-based, human. Conditions: Homo sapiens, HeLa, 24 h, 24 h incubation, read-out: Cytotoxicity EC50, HeLa.
Source text: as §1, §2, §3

Data set [3] deals with MDA-MB-231 (triple-negative breast cancer). The data set can be described thus: MTT cell viability assay, MDA-MB-231. Conditions: Homo sapiens, MDA-MB-231, 24 h, 24 h incubation, read-out: Cytotoxicity EC50, MDA-MB-231 (TNBC). Type of data set: cell-based, human.
Source text: as §1, §2, §3

Data set [4] deals with Hep G2 (hepatocellular carcinoma). The data set can be described thus: MTT cell viability assay, Hep G2. Type of data set: cell-based. Conditions: Homo sapiens, HepG2, 24 h incubation, read-out: Cytotoxicity EC50, Hep G2.
Source text: as §1, §2, §3

For data set [5], the system named is Staphylococcus aureus (ATCC 21027). As to the kind of experiment: Antimicrobial activity, inhibition of microbial growth (optical density). Conditions: Staphylococcus aureus, ATCC21027; 18 h, OD 620 nm; read-out: Inhibition of Microbial Growth MIC50, S. aureus. Type of data set: cell-based. On the procedure:
(§4) The antimicrobial activity of the compounds was determined against Gram-positive bacteria Staphylococcus aureus (ATCC 21027), Gram-negative bacteria Escherichia coli (VKPM B-7935), and yeast-like fungi Candida albicans (KMM 455) (all test strains were obtained from the Collection of Marine Microorganisms KMM PIBOC FEB RAS) in liquid nutrient media. Test cultures of S. aureus, E. coli, and C. albicans were grown in Petri dishes on a solid nutrient medium (Mueller–Hinton broth with the addition of agar—16.0 g/L) at 37 °C for 24 h. The antimicrobial activity of the compounds was determined by the change in optical density and expressed as the percentage of bacterial inhibition at different concentrations of substances added to the well of the microorganism suspension, compared to the control. The compounds were dissolved in dimethyl sulfoxide (DMSO) at a concentration of 10 mM and stored at −20 °C. Before the experiment, the solution of substances in DMSO was diluted with PBS at a concentration of 0.5–100.0 µM and added to the wells so that the concentration of DMSO in the culture medium was less than 1%. Antimicrobial activity was determined in 96-well microplates in a liquid Mueller–Hinton nutrient medium. For S. aureus, E. coli, and C. albicans, a bacterial suspension of 10^6 CFU in 1 mL of the media was used, 90 μL was added to each well of the microplates and then incubated in a thermostatted shaker at 37 °C for 18 h. Inhibition of microorganism growth was assessed by measuring the optical density at 620 nm using a microplate reader (Thermo Fisher Scientific, Waltham, MA, USA) after preliminary shaking of the plates for 10 min. All experiments were performed in triplicate. Gentamicin (S. aureus and E. coli) and nitrofungin (C. albicans) were used as positive controls, and 1% DMSO in PBS was used as a negative control.

In data set [6] the test system is Escherichia coli (VKPM B-7935). Described as above. Format: cell-based. Conditions: Escherichia coli; 18 h, OD 620 nm; read-out: Inhibition of Microbial Growth MIC50, E. coli. The procedure: as §4
In data set [7] the test system is Candida albicans (KMM 455). Described as above. Type of data set: cell-based. Conditions: Candida albicans, KMM455; 18 h, OD 620 nm; read-out: Inhibition of Microbial Growth MIC50, C. albicans. On the procedure:
as §4

In brackets after ≈: the same amount, converted by molar mass. Counter-ions that a name gives are not always drawn. Where only a bound is given, the exact number is not on record here.

The EC50 is the concentration needed to bring the measured effect to its halfway point. The term MIC50 denotes the lowest concentration that inhibits either 50% of growth or 50% of the strains tested, depending on the study. For the molecule `CC(=O)O[C@@H]1[C@@H](OC(C)=O)[C@H](SSc2sc(N)nc2-c2ccc(C)cc2)OC[C@H]1OC(C)=O` [Compound 4j, 5-[(2,3,4-Tri-O-acetyl-β-D-xylopyranosyl)disulfanyl]-2-amino-4-(p-tolyl)thiazole], in data set [1], the EC50 at 24 h is greater than 25 µM. For the same molecule, the EC50 was greater than 25 µM in data set [2], 23.7 µM in data set [3] and greater than 25 µM in data set [4]. Further, the MIC50 in data set [5] stood at 25 ± 1.4 µM (≈ 12.8 µg/mL); in data set [6] it was 25.5 ± 2 µM (≈ 13.1 µg/mL); in data set [7] it was 18.1 ± 1 µM (≈ 9.28 µg/mL).
`Nc1nc(-c2ccccc2)c(SSc2sc(N)nc2-c2ccccc2)s1` [Compound 1b, bis(2-amino-4-phenyl-5-thiazolyl)disulfide]: the MIC50 turned out to be 5.2 ± 0.5 µM (≈ 2.16 µg/mL) in data set [5], 13.9 ± 1.3 µM (≈ 5.76 µg/mL) in data set [6] and 6.2 ± 0.6 µM (≈ 2.57 µg/mL) in data set [7].
For `CC(=O)OC[C@H]1O[C@@H](SSc2sc(N)nc2-c2ccccc2)[C@H](OC(C)=O)[C@@H](OC(C)=O)[C@@H]1OC(C)=O` [Compound 4b, 5-[(2,3,4,6-Tetra-O-acetyl-β-D-glucopyranosyl)disulfanyl]-2-amino-4-phenylthiazole], the EC50 at 24 h in data set [1] worked out at 19 µM. In addition, the EC50 is greater than 25 µM in data set [2], 24.1 µM in data set [3] and greater than 25 µM in data set [4]. Moreover, the MIC50 in data set [5] came out at 28.4 ± 3.1 µM (≈ 16.2 µg/mL); in data set [6] it was 31.2 ± 2 µM (≈ 17.8 µg/mL); in data set [7] it was 20.5 ± 2.7 µM (≈ 11.7 µg/mL).
With `CC(=O)O[C@@H]1[C@@H](OC(C)=O)[C@H](SSc2sc(N)nc2-c2ccccc2)OC[C@H]1OC(C)=O` [Compound 4g, 5-[(2,3,4-Tri-O-acetyl-β-D-xylopyranosyl)disulfanyl]-2-amino-4-phenylthiazole], the EC50 at 24 h in data set [1] is greater than 25 µM. Also, the half-maximal effective concentration (EC50) in data set [2], in data set [3] and in data set [4] was greater than 25 µM each time. The figures for the MIC50 in data set [5], in data set [6] and in data set [7] were 34 ± 1.6 µM (≈ 17 µg/mL), 42.1 ± 4.1 µM (≈ 21 µg/mL) and 35.7 ± 3 µM (≈ 17.8 µg/mL), respectively.
In the case of `COc1ccc(-c2nc(N)sc2SS[C@@H]2OC[C@@H](O)[C@H](O)[C@H]2O)cc1` [Compound 5f, 5-[(β-D-xylopyranosyl)disulfanyl]-2-amino-4-(4-methoxyphenyl)thiazole hydrochloride], the EC50 at 24 h in data set [1] was greater than 25 µM. In addition, the EC50 in data set [2], in data set [3] and in data set [4] was greater than 25 µM in each case. The figures for the MIC50 in data set [5], in data set [6] and in data set [7] were greater than 50 µM, greater than 50 µM and 36.2 ± 2.1 µM, respectively.
For the molecule `Nc1nc(-c2ccc(Br)cc2)c(SSc2sc(N)nc2-c2ccc(Br)cc2)s1` [Compound 1c], the MIC50 in data set [5] was determined as 3.4 ± 0.4 µM (≈ 1.95 µg/mL); in data set [6], 15.7 ± 2.3 µM (≈ 8.99 µg/mL); in data set [7], 3.1 ± 0.4 µM (≈ 1.77 µg/mL).
For `Nc1nc(-c2ccc(Cl)cc2)c(SS[C@@H]2OC[C@@H](O)[C@H](O)[C@H]2O)s1` [Compound 5i, 5-[(β-D-xylopyranosyl)disulfanyl]-2-amino-4-(4-clorophenyl)thiazole hydrochloride], the EC50 at 24 h in data set [1] is greater than 25 µM. Besides, the EC50 in data set [2], in data set [3] and in data set [4] was greater than 25 µM each time. The MIC50 in data set [5] came to 13.7 ± 1.1 µM; in data set [6], 21 ± 3 µM; in data set [7] it was 13.8 ± 1.2 µM.
Turning to `Nc1nc(-c2ccccc2)c(SS[C@@H]2O[C@H](CO)[C@@H](O)[C@H](O)[C@H]2O)s1` [Compound 5b, 5-[(β-D-glucopyranosyl)disulfanyl]-2-amino-4-phenylthiazole hydrochloride], the EC50 at 24 h in data set [1] came to 20.8 µM. Moreover, the EC50 in data set [2], in data set [3] and in data set [4] was greater than 25 µM throughout. Further, the MIC50 in data set [5], in data set [6] and in data set [7] was greater than 50 µM in each case.
`CNC(C)C1CCC(N)C(OC2C(N)CC(N)C(OC3OCC(C)(O)C(NC)C3O)C2O)O1` (stereo not drawn) [Gentamicin, reference compound]: the values for the MIC50 in data set [5] and in data set [6] were 4.3 ± 0.8 µM (≈ 2.05 µg/mL) and 5.1 ± 0.7 µM (≈ 2.44 µg/mL), respectively.
Turning to `Nc1nc(-c2ccc(Cl)cc2)c(SSc2sc(N)nc2-c2ccc(Cl)cc2)s1` [Compound 1d], the results for the MIC50 in data set [5], in data set [6] and in data set [7] were 2.8 ± 0.2 µM (≈ 1.35 µg/mL), 30.9 ± 3 µM (≈ 14.9 µg/mL) and 5 ± 0.4 µM (≈ 2.42 µg/mL), respectively.
Consider `Cc1ccc(-c2nc(N)sc2SSc2sc(N)nc2-c2ccc(C)cc2)cc1` [Compound 1e], for which the MIC50 was determined as 30.7 ± 2.1 µM (≈ 13.6 µg/mL) in data set [5], 33.9 ± 3.9 µM (≈ 15 µg/mL) in data set [6] and 19.5 ± 2 µM (≈ 8.63 µg/mL) in data set [7].
In the case of `COc1ccc(-c2nc(N)sc2SS[C@@H]2O[C@H](CO)[C@@H](O)[C@H](O)[C@H]2O)cc1` [Compound 5a, 5-[(β-D-glucopyranosyl)disulfanyl]-2-amino-4-(4-methoxyphenyl)thiazole hydrochloride], in data set [1], the EC50 at 24 h was greater than 25 µM. The EC50 in data set [2] is greater than 25 µM; in data set [3] it was 24.9 µM; in data set [4], greater than 25 µM. Besides, the MIC50 in data set [5], in data set [6] and in data set [7] was greater than 50 µM each time.
Consider `COc1ccc(-c2nc(N)sc2SS[C@@H]2O[C@H](COC(C)=O)[C@@H](OC(C)=O)[C@H](OC(C)=O)[C@H]2OC(C)=O)cc1` [Compound 4a, 5-[(2,3,4,6-Tetra-O-acetyl-β-D-glucopyranosyl)disulfanyl]-2-amino-4-(4-methoxyphenyl) thiazole], for which the EC50 at 24 h in data set [1] worked out at 19.9 µM. In addition, the EC50 in data set [2], in data set [3] and in data set [4] was greater than 25 µM in each case. In addition, the MIC50 was 32.5 ± 3.2 µM (≈ 19.5 µg/mL) in data set [5], greater than 50 µM in data set [6] and 31.5 ± 3.1 µM (≈ 18.9 µg/mL) in data set [7].
`Cc1ccc(-c2nc(N)sc2SS[C@@H]2O[C@H](CO)[C@@H](O)[C@H](O)[C@H]2O)cc1` [Compound 5e, 5-[(β-D-glucopyranosyl)disulfanyl]-2-amino-4-(p-tolyl)thiazole hydrochloride]: the EC50 at 24 h in data set [1] is 22.6 µM. In addition, the figures for the EC50 in data set [2], in data set [3] and in data set [4] were greater than 25 µM, 23.5 µM and greater than 25 µM, respectively. For the same molecule, the MIC50 is greater than 50 µM in data set [5], greater than 50 µM in data set [6] and 38.5 ± 3.4 µM in data set [7].
In the case of `Nc1nc(-c2ccccc2)c(SS[C@@H]2OC[C@@H](O)[C@H](O)[C@H]2O)s1` [Compound 5g, 5-[(β-D-xylopyranosyl)disulfanyl]-2-amino-4-phenylthiazole hydrochloride], the EC50 at 24 h in data set [1] was determined as 22 µM. The EC50 in data set [2], in data set [3] and in data set [4] was greater than 25 µM each time. In addition, the MIC50 in data set [5] is greater than 50 µM; in data set [6], 24.9 ± 2.2 µM; in data set [7], 25.3 ± 1 µM.
